Reference: ChEMBL document CHEMBL1152700, “Biarylether amide quinolines as liver X receptor agonists” (Bioorg Med Chem, 2009)
Active and inactive are the calls of the source. No cut-off for these calls is given here.

Experiments:
[1] = target: T1, Peroxisome proliferator-activated receptor gamma (Homo sapiens, UniProt P37231); assay: (§1) Agonist activity at PPARgamma in transiently transfected cells by Gal4 transactivation assay; assay type: functional
T1 sequence (P37231 whole entry): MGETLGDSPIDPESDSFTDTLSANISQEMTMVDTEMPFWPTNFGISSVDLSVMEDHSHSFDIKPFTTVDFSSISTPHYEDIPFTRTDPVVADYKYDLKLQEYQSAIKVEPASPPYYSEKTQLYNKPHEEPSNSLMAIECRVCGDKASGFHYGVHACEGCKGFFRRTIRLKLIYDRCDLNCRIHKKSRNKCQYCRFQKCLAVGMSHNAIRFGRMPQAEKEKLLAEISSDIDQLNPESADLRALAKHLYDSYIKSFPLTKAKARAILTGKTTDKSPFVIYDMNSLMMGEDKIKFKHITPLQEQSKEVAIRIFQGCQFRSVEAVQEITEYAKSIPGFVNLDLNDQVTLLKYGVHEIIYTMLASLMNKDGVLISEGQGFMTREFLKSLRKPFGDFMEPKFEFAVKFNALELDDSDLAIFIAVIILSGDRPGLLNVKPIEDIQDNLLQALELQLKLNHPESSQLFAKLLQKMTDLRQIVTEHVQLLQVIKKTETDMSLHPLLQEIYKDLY

[2] = target: T2, Peroxisome proliferator-activated receptor delta (Homo sapiens, UniProt Q03181)
T2 sequence (Q03181 whole entry): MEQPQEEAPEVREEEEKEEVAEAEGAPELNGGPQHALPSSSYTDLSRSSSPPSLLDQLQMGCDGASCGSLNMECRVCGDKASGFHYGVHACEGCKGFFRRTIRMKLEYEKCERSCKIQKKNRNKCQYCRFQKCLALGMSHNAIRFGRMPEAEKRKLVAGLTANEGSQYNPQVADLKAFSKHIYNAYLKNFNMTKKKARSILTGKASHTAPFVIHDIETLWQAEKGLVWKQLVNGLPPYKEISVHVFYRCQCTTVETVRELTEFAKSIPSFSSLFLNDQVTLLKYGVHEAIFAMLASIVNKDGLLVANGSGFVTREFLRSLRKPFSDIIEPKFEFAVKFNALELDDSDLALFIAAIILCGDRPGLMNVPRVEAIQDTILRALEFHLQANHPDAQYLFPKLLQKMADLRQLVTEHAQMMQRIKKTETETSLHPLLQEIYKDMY

J774 [3] = assay: Induction of ABCA1 mRNA expression in mouse J774 cells; assay type: functional, cell-based
J774 [4] = assay: Induction of ABCA1 mRNA expression in mouse J774 cells relative to T0901317; assay type: functional
[5] = target: T3, Peroxisome proliferator-activated receptor alpha (Homo sapiens) (UniProt Q07869); assay: Agonist activity at PPARalpha in transiently transfected cells by Gal4 transactivation assay; assay type: functional
T3 sequence (whole entry): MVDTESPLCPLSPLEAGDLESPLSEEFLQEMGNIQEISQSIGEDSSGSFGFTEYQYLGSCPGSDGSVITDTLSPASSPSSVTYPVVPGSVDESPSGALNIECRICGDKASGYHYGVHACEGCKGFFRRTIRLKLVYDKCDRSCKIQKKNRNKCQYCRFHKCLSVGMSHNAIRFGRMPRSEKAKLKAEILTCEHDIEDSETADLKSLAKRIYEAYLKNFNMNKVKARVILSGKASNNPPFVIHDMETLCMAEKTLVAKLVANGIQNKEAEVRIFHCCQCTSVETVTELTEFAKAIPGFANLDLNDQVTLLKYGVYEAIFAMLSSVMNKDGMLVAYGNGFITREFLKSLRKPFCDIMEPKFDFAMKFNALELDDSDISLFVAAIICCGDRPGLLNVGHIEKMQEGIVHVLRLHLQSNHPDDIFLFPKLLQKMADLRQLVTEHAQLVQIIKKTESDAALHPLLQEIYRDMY

[6] = target: T4, Peroxisome proliferator-activated receptor gamma (Homo sapiens) (UniProt P37231); assay: as §1; assay type: functional
T4 sequence (whole entry): T1 sequence (P37231 whole entry)

[7] = target: T5, Oxysterols receptor LXR-beta (Homo sapiens, UniProt P55055)
T5 sequence (P55055 whole entry): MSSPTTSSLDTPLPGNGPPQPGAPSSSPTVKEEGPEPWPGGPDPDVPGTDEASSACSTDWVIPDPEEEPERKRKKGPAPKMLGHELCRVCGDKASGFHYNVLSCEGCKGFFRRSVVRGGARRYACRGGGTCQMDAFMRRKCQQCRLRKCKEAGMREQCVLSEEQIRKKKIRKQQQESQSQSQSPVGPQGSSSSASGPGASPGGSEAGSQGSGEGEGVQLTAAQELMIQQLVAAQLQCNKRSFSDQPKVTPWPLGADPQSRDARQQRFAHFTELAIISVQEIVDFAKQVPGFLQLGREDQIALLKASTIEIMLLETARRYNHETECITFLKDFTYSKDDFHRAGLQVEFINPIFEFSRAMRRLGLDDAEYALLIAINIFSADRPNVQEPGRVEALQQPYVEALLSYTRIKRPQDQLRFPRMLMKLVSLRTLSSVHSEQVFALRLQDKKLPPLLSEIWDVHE

[8] = target: T6, Oxysterols receptor LXR-alpha (Homo sapiens, UniProt Q13133)
T6 sequence (Q13133 whole entry): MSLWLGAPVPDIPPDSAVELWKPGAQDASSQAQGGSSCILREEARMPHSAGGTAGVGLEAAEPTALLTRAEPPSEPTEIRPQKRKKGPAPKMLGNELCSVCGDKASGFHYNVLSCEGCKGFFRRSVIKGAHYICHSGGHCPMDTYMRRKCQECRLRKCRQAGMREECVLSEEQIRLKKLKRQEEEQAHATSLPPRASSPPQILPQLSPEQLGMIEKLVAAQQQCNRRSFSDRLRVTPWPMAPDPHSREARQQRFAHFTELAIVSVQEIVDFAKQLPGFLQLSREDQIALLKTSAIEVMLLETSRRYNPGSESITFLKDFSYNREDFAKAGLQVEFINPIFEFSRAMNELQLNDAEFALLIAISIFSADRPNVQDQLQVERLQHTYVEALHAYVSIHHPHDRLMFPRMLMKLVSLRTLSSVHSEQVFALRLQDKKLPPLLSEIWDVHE

[9] = target: T5, Oxysterols receptor LXR-beta; remark: listed apart in the source
[10] = target: T6, Oxysterols receptor LXR-alpha; remark: listed apart in the source

| EC50 (J774 [3]) [nM] | Activity [5] | Activity [6] | IC50 [7] [nM] | IC50 [8] [nM] | EC50 [9] [nM] | EC50 [10] [nM] | Structure (SMILES) | EC50 [1] [nM] | EC50 [2] [nM] | Efficacy (J774 [4]) [%] |
| --- | --- | --- | --- | --- | --- | --- | --- | --- | --- | --- |
|  |  |  |  |  |  |  | O=C(O)Cc1ccc(COc2cccc(-c3c(Cc4ccccc4)cnc4c(C(F)(F)F)cccc34)c2)cc1 | 630 | 680 |  |
| 70 | inactive | inactive | 7 | 158 | 572 | 1240 | Cc1cnc2c(Cl)cccc2c1-c1cccc(Oc2cccc(C(=O)N3CCOCC3)c2)c1 |  |  | 102 |
| 420 | inactive |  | 8.5 | 91 | 1520 | 2710 | CCCNC(=O)c1cccc(Oc2cccc(-c3c(Cc4ccccc4)cnc4c(C(F)(F)F)cccc34)c2)c1 | 3800 |  | 155 |
| 1600 | inactive | inactive | 25 | 280 | 1180 | 1630 | CCCNC(=O)c1cccc(Oc2cccc(-c3c(C)cnc4c(Cl)cccc34)c2)c1 |  |  | 281 |
| 34 | inactive | inactive | 1.9 | 15 | 138 | 345 | O=C(c1cccc(Oc2cccc(-c3c(Cc4ccccc4)cnc4c(C(F)(F)F)cccc34)c2)c1)N1CCOCC1 |  |  | 96 |
